Experiments:
CPSF6 = target: T1, CPSF6 (Homo sapiens, UniProt Q16630); assay: Competitive affinity-based chemoproteomics (UNC0965 matrix), PBMC cell extract; type: binding; conditions: 20 µM competitor, n=2
T1 construct: endogenous in cells; host or cells: PBMC from healthy blood donors, cell extract
Protocol: described.[2] Lysates were precleared with bead slurry (100 μL) for 30 min at 4 °C and then treated with UNC0638 or UNC0737 (20 μM) or DMSO control for 30 min at 4 °C followed by incubation with affinity matrix for 2 h at 4 °C. Affinity matrices were washed with buffer A (5 mL) and proteins eluted with 100 μL of 2x Laemmli sample buffer, 100 mM DTT, in PBS and heating for 10 min at 90 °C.
Eluents (70 µL) were diluted in 0.1 M Tris (pH 7.8) to 200 µL, reduced with 5 mM DTT for 30 min at RT, and alkylated with 20 mM iodoacetamide for 30 min at RT in the dark. Proteins were precipitated by sequential addition of MeOH (600 µL), CHCl3 (150 µL) and H2O (450 µL), pelleted (17,000 × g, 5 min), washed with further MeOH (2 × 600 µL), and re-pelleted. Air dried pellets were resuspended in 50 μL 6 M urea (pH 7.8) by vortexing and then diluted with 250 μL H2O before adding 1 µg trypsin for overnight incubation at 37 °C. The digests were acidified with FA (1% v/v final concentration), desalted using SOLA HRP SPE Cartridges (Thermo Fisher), eluted with 69% v/v MeCN, 0.1% v/v FA in H2O (600 μL) and dried in vacuo. Dried peptides were stored at -20 °C before resuspension in 2% v/v MeCN, 0.1% v/v FA in H2O (20 μL) for LC-MS/MS analysis.
LC-MS/MS Data Acquisition
Digested samples were analysed by nano-UPLC–MS/MS using a Dionex Ultimate 3000 nano UPLC fitted with an EASY spray column (75 μm × 500 mm, 2 μm particle size, Thermo Scientific), coupled to an Orbitrap Q Exactive instrument. A 60 min gradient of 0.1% (v/v) formic acid in 5 % (v/v) DMSO to 0.1% (v/v) formic acid with 35% (v/v) acetonitrile in 5 % (v/v) DMSO at a flow rate of 250 nL min−1 was used. The instrument was operated in a data-dependant mode, with survey scans acquired at a resolution of 70,000 at 200 m/z and the 15 most abundant precursors selected for HCD fragmentation with an AGC target of […] ions.
Raw data was processed using MaxQuant[3] version 2.0.1.0 and the reference complete human proteome FASTA file (UniProt, downloaded 05.08.21). Label Free Quantification (LFQ) and Match Between Runs were selected; Cysteine carbamidomethylation was selected as a fixed modification, and methionine oxidation and asparagine deamidation as variable modifications. Default settings for identification and quantification were used. Specifically, a minimum peptide length of 7, a maximum of 2 missed cleavage sites, and a maximum of 5 labelled amino acids per peptide were allowed.
Through selection of the ‘trypsin/P’ general setting, peptide bond cleavage at arginine or lysine (followed by any amino acid) was considered during in silico digest of the reference proteome. The allowed precursor and fragment ion mass tolerances were 4.5 ppm and 20 ppm, respectively. Peptides and proteins were identified utilizing a 0.01 false discovery rate, with “unique and razor peptides” […]
mode selected for both identification and quantification of proteins (razor peptides are uniquely assigned to protein groups and not to individual proteins).

GVINP1 = target: T2, GVINP1 (Homo sapiens, UniProt Q7Z2Y8); assay: PISA thermal profiling, intact HepG2 cells; type: cell-based; conditions: 30 µM, 60 min, n=3
T2 construct: endogenous in cells; host or cells: intact HepG2 cells
T2 sequence (Q7Z2Y8 whole entry): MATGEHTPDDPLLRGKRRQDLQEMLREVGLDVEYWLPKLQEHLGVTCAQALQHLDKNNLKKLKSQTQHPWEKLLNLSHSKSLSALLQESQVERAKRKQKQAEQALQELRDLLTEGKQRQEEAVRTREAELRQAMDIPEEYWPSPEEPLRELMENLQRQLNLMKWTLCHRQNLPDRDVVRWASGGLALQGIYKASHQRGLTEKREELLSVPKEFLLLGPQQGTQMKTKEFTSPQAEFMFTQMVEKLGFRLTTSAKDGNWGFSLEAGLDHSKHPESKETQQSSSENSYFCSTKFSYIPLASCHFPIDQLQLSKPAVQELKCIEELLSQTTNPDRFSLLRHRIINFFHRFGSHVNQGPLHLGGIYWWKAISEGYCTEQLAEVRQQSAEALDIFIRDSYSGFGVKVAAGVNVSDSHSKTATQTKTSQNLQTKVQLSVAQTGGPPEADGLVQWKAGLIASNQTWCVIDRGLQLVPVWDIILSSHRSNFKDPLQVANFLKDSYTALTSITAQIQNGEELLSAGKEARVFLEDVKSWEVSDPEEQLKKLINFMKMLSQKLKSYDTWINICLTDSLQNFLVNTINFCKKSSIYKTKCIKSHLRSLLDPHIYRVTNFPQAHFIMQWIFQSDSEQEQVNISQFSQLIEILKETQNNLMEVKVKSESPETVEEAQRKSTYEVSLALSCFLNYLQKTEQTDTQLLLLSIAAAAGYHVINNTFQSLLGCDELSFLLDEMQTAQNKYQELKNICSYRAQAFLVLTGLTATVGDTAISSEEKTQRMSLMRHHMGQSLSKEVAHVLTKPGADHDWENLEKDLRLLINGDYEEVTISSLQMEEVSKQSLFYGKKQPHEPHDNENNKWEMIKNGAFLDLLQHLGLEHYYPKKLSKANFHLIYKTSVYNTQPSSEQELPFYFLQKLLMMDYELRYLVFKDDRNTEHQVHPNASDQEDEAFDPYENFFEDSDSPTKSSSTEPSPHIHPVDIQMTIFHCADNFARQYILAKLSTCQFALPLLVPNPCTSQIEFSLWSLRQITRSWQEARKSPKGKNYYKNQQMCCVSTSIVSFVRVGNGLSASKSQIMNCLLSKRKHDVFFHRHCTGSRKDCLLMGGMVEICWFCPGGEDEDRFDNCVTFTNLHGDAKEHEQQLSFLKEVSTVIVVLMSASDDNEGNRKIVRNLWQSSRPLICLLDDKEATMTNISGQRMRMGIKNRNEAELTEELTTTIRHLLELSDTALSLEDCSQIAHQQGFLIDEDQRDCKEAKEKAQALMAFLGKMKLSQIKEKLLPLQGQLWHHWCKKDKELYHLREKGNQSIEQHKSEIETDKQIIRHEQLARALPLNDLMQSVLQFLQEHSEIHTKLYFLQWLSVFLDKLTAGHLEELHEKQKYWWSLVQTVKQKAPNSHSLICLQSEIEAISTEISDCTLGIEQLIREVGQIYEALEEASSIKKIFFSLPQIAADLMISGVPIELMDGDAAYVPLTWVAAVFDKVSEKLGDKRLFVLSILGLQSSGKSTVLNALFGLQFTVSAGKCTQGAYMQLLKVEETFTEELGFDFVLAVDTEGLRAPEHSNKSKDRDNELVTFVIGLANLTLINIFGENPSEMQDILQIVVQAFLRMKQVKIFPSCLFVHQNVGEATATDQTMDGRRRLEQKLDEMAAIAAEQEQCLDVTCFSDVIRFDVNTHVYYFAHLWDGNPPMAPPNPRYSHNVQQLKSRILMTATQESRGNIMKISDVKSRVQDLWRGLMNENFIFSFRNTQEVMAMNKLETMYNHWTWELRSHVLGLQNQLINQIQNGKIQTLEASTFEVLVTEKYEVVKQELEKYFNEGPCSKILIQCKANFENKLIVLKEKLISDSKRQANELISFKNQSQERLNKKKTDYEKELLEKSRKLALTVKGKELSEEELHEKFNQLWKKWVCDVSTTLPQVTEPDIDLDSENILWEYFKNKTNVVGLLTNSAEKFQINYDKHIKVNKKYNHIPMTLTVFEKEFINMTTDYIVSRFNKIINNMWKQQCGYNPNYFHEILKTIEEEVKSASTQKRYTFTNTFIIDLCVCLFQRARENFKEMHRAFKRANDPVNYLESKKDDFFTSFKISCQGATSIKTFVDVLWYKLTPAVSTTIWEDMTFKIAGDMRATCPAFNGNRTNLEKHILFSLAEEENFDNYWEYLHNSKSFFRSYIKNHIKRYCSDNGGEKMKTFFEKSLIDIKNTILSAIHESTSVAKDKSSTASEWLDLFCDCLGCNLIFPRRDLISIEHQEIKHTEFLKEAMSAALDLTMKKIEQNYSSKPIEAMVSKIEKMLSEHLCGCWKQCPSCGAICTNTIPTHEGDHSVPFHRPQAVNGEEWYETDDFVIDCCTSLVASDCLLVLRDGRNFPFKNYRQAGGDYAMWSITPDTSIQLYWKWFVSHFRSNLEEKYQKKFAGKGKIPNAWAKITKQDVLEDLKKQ
Text: To further corroborate our findings, we next performed the proteome integral solubility alteration (PISA) assay in HepG2 human hepatoma cells that express high levels of CHKA. Conceptually building on the cellular thermal shift assay (CETSA) with mass spectrometry based detection,[19, 20] PISA leverages compound‐mediated stabilisation of target proteins without the need of chemical modification in intact cells. […]
carried out using REFMAC[9] and COOT,[10] and concluded when no improvements resulted for Rfree and Rwork values, and when density maps indicated no further changes were justified.
Choline Coupled Enzymatic Assay
CHKA (120 ng, 24 µg/ml) was arrayed (5 µL) into a 96 well semi-skirted real time PCR plate. 4-fold dilution series and vehicle controls (0.5% DMSO) were prepared in a separate plate. A further DMSO control was included for use with a no protein well control. […]
After mixing, bubbles were removed by centrifugation (1000 × g, 1 min) and absorbance read at 340 nm on a PheraSTAR FSX (BMG Labtech), reading every minute for 10 min. […]
by centrifugation at 30,000 × g for 20 min at 4 °C. The soluble fractions were collected to fresh tubes and further processed to be analysed with mass spectrometry. […]
Sample preparation for the quantification of metabolites by nuclear magnetic resonance (NMR) spectroscopy was performed as described previously.[13] […]

T1 sequence (Q16630 whole entry): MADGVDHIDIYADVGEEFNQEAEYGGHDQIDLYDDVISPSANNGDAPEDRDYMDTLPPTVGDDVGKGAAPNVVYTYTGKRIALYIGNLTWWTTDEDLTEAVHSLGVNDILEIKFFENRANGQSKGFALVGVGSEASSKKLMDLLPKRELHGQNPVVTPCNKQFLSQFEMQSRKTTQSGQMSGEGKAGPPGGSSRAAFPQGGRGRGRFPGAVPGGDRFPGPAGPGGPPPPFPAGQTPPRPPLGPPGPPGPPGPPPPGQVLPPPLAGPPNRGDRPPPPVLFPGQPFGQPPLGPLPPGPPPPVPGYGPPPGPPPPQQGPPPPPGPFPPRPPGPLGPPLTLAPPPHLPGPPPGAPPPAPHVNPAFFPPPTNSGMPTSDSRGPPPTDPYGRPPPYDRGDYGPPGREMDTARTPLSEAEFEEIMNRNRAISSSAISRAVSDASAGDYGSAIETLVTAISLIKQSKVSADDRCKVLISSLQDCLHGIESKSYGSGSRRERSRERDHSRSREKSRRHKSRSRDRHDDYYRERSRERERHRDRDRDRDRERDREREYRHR

COc1cc2c(NC3CCN(C(C)C)CC3)nc(C3CCCCC3)nc2cc1OCCCN1CCCC1 [UNC0638]
FC vs DMSO (log2 competition), CPSF6 (CPSF6): -1.787 | effect_CETSA_Intact (PISA amplitude), GVINP1 (GVINP1): 0.358

COc1cc2c(N(C)C3CCN(C(C)C)CC3)nc(C3CCCCC3)nc2cc1OCCCN1CCCC1 [UNC0737]
FC vs DMSO (log2 competition), CPSF6 (CPSF6): -0.1868 | effect_CETSA_Intact (PISA amplitude), GVINP1 (GVINP1): 0.871

Reference: publication PMC11811597, “Phenomics‐Based Discovery of Novel Orthosteric Choline Kinase Inhibitors” (Angewandte Chemie (International Ed. in English), 2025)
